The first experiment relates to HCT116 cells. As to the kind of experiment: Anti-tumor cell proliferation activity of compound of formula (D-H), Cell-Titer Glo, HCT116. The class given is cell-based. The note with it: Homo sapiens, HCT-116, 72 h, read-out: HCT116 Antiproliferative activity IC50 (nM), HCT116 cells, 3 days. As for the experimental part:
(§1) Cell culture: HCT116 cells and SKBR3 cells were cultured with a McCoy's 5a medium containing 10% fetal bovine serum+1% penicillin-streptomycin at 37° C. with 5% CO2, and OVCAR3 cells were cultured with a 1640 medium containing 20% fetal bovine serum+2 μg/mL bovine insulin+1% penicillin-streptomycin at 37° C. with 5% CO2. Cells at logarithmic growth phase were available for the experiment.
(§2) Cell proliferation activity test: The Cell-Titer Glo reagent was used to test the compound for inhibitory activity on proliferation of the three cell strains HCT116, SKBR3, and OVCAR3. HCT116 cells (1500 per well), SKBR3 cells (3000 per well), and OVCAR3 cells (5000 per well) were seeded on 96-well plates and incubated at 37° C. with 5% CO2 for 24 h. After a solution of the compound to be detected was added (the compound was dissolved in DMSO so that the compound concentration was 1 mM, then the compound was diluted to […] in DMSO at 9 concentrations in a 3-fold dilution, and 10 μL of the prepared compound solution was transferred to the 96-well plate so that the final concentration was 0-300 nM), the mixture was incubated at 37° C. with 5% CO2. HCT116 cells were cultured for 3 days, and SKBR3 cells and OVCAR3 cells were cultured for 5 days. The Cell-Titer Glo reagent was added and the cell activity was measured.
(§3) A negative control group and a positive control group were respectively used as Bottom and Top. The negative control group was not added with cells, only added with the culture medium in the same volume, and other operations were consistent with those of the experimental group. The positive control group was not added with the test drug, and other operations were consistent with those of the experimental group.
(§4) Data analysis: % Inhibition was calculated, and compound IC50 was fitted.
(§5) % Inhibition=1-100%×(Signal−Bottom)/(Top−Bottom).
(§6) Signal referred to the signal value of the experimental group, Bottom referred to the average signal value of the negative control group, and Top referred to the average signal value of the positive control group.
By IC50 is commonly meant the concentration at which inhibition is half-maximal. For the molecule `CC[C@@]1(O)C(=O)OCc2c1cc1n(c2=O)Cc2c-1nc1ccc3c(c1c2CNC(=O)CO)CCC3` [Compound 7, (S)-N-((8-ethyl-8-hydroxy-9,12-dioxo-2,3,8,9,12,14-hexahydro-1H,11H-cyclopenta[f]pyrano[3′,4′:6,7]indolizino[1,2-b]quinolin-15-yl)methyl)-2-hydroxyacetamide], the IC50 was 10 to 100 nM.

Consider `CC[C@@]1(O)C(=O)OCc2c1cc1n(c2=O)Cc2c-1nc1cnc(Br)cc1c2CNC(=O)CO` [Compound 15, (S)-N-((9-bromo-4-ethyl-4-hydroxy-3,14-dioxo-3,4,12,14-tetrahydro-1H-pyrano[3′,4′:6,7]indolizino[1,2-b][1,7]naphthyridin-11-yl)methyl)-2-hydroxyacetamide], for which the IC50 was 10 to 100 nM.

With `[2H]C1([2H])Oc2cc3nc4c(c(CNC(=O)C(O)C5CC5)c3cc2O1)Cn1c-4cc2c(c1=O)COC(=O)[C@]2(O)CC` (stereo partly drawn) [Compound 19, 2-cyclopropyl-N—(((S)-7-ethyl-7-hydroxy-8,11-dioxo-7,8,11,13-tetrahydro-10H-[1,3]dioxolo[4,5-g]pyrano[3′,4′:6,7]indolizino[1,2-b]quinolin-14-yl-2,2-d2)methyl)-2-hydroxyacetamide], the half-inhibitory concentration (IC50) was < 10 nM.

On to `CC[C@@]1(O)C(=O)OCc2c1cc1n(c2=O)Cc2c-1nc1cc(Cl)c3occc3c1c2CNC(=O)CO` [Compound 27, (S)-N-((4-chloro-8-ethyl-8-hydroxy-9,12-dioxo-8,9,12,14-tetrahydro-11H-furo[3,2-f]pyrano[3′,4′:6,7]indolizino[1,2-b]quinolin-15-yl)methyl)-2-hydroxyacetamide], for which the IC50 is 10 to 100 nM.

On to `CC[C@@]1(O)C(=O)OCc2c1cc1n(c2=O)Cc2c-1nc1cc(Cl)c3occc3c1c2CNC(=O)C(O)C1CC1` (stereo partly drawn) [Compound 28, N—(((S)-4-chloro-8-ethyl-8-hydroxy-9,12-dioxo-8,9,12,14-tetrahydro-11H-furo[3,2-f]pyrano[3′,4′:6,7]indolizino[1,2-b]quinolin-15-yl)methyl)-2-cyclopropyl-2-hydroxyacetamide], for which the IC50 was < 10 nM.

`CC[C@@]1(O)C(=O)OCc2c1cc1n(c2=O)Cc2c-1nc1cc3c(c([N+](=O)[O-])c1c2CNC(=O)C(O)C1CC1)OCO3` (stereo partly drawn) [Compound 29, 2-cyclopropyl-N—(((S)-7-ethyl-7-hydroxy-15-nitro-8,11-dioxo-7,8,11,13-tetrahydro-10H-[1,3]dioxolo[4,5-g]pyrano[3′,4′:6,7]indolizino[1,2-b]quinolin-14-yl)methyl)-2-hydroxyacetamide]: the half-inhibitory concentration (IC50) is 10 to 100 nM.

The same experiment, now with this note: Homo sapiens, HCT-116, 72 h; HCT116 cells, 3 days; read-out: HCT116 Antiproliferative activity IC50.
With `CC[C@@]1(O)C(=O)OCc2c1cc1n(c2=O)Cc2c-1nc1cc3c(c(F)c1c2CNC(=O)[C@@H](O)C1CC1)OCO3` [Compound 35-P1, 2-cyclopropyl-N-(((S)-7-ethyl-15-fluoro-7-hydroxy-8,11-dioxo-7,8,11,13-tetrahydro-10H-[1,3]dioxolo[4,5-g]pyrano[3′,4′:6,7]indolizino[1,2-b]quinolin-14-yl)methyl)-2-hydroxyacetamide], the IC50 was < 10 nM.

A further experiment concerns SKBR3 cells. The experiment is described as follows: Anti-tumor cell proliferation activity of compound of formula (D-H), Cell-Titer Glo, SKBR3. The class given is cell-based, human. The note with it: Homo sapiens, SK-BR-3, 120 h, read-out: SKBR3 Antiproliferative activity IC50 (nM), SKBR3 cells, 5 days. The procedure:
as §1, §2, §3, §4, §5, §6
For the molecule `CC[C@@]1(O)C(=O)OCc2c1cc1n(c2=O)Cc2c-1nc1cc3c(cc1c2CNC(=O)CO)OCCO3` [Compound 1, (S)-N-((8-ethyl-8-hydroxy-9,12-dioxo-2,3,8,9,12,14-hexahydro-11H-[1,4]dioxino[2,3-g]pyrano[3′,4′:6,7]indolizino[1,2-b]quinolin-15-yl)methyl)-2-hydroxyacetamide], the half-inhibitory concentration (IC50) was 8.5 nM.

In the case of `CC[C@@]1(O)C(=O)OCc2c1cc1n(c2=O)Cc2c-1nc1cc(F)c(Cl)cc1c2CNC(=O)CO` [Compound 3, (S)-N-((9-chloro-4-ethyl-8-fluoro-4-hydroxy-3,14-dioxo-3,4,12,14-tetrahydro-1H-pyrano[3′,4′:6,7]indolizino[1,2-b]quinolin-11-yl)methyl)-2-hydroxyacetamide], the IC50 was determined as 3.6 nM.
